# Reference: patent US12419891B2, “Compositions for the treatment of pathogenic- and/or chemical-induced lung injury and for the treatment of cancer and methods of using same” (Duke University, priority 2019, dated 2025)
# Key:
# [1] = system: mice exposed to S. aureus; experiment: mouse model of pneumonia induced by nasal insufflation of S. aureus; type: in vivo
# Experimental: Bacteria. S. aureus (Ssp. aureus, No. 25923; American Type Culture Collection) was grown as previously described (Suliman H B et al. (2017) Mitochondrial quality control in alveolar epithelial cells damaged by S. aureus pneumonia in mice. American journal of physiology. Lung cellular and molecular physiology 313(4):L699-L709). Dilutions of 5×10^8 CFU were used for mouse experiments, and dilutions of 1×10^8 CFU were used for cell culture experiments. S. pneumoniae (serotype 19, No. 49619; American Type Culture Collection) was grown as previously described (Gomez J C, et al. (2016) Journal of immunology 197(7):2864-2879). Dilutions of 6×10^5 CFU were used for mouse experiments.
# CC10 (Scgb1a1)-CreERT; Rosa26R-CAG-farnesylated GFP (Rosa26-fGFP) and SPC (Sftpc)-CreERT2; Rosa26-tdTomato mice were kindly provided by Dr. Mark Onaitis and generated by Dr. Brigid Hogan at Duke University and have been previously described (Rawlins E L, et al. (2009) Cell stem cell 4(6):525-534, Xu X, et al. (2012) Proc Natl Acad Sci USA 109(13):4910-4915). These mice were crossed with Abl1^flox/flox mice (Moresco E M, et al. (2005) J Neurosci 25(26):6105-6118) into a C57BL/6 genetic background. Sox2^tmHoch/J mice (referred to as SOX2-eGFP mice in the text) were purchased from the Jackson Laboratory. Gt(Rosa) 26Sor^tm9(EGFP/Rpl10z)Amc/J (referred to as L10-eGFP in the text) mice were purchased from the Jackson Laboratory and were crossed to CC10-CreERT; Abl1^flox/flox mice into a C57BL/6 genetic background for the TRAP experiments. To induce expression of Cre-recombinase for both TRAP experiments and lineage tracing experiments, 8to 20-week-old male and female mice were injected intraperitoneally four times every other day with 0.25 mg/g body weight Tamoxifen (Sigma-T5648) in corn oil (Spectrum-CO136). Exposure to S. aureus was initiated 15 days after the last dose of Tamoxifen. Alternatively, mice were inoculated with purified Adenovirus5-CC10-Cre virus obtained from the University of Iowa Viral Vector Core Facility and generated by Dr. Anton Berns (Netherlands Cancer Institute). 10 μL of stock virus solution was mixed in 30 μL of Minimum Essential Medium and delivered intranasally twice, three days apart, three weeks prior to induction of S. aureus pneumonia. Mice were anesthetized using 0.3 mg xylazine and […] ketamine intraperitoneally prior to intranasal inoculation with a 50 μL dilution of 5×10^8 S. aureus. The mice were monitored daily for weight loss and signs of respiratory distress and euthanized in an isofluorane chamber at days 0, 1, 2, and 3 after inoculation. All experiments were performed under the Duke University IACUC approved protocols: A098-16-04 and A130-16-06. Male and female mice at different ages (8 to 20 weeks old) were evaluated for differential response to drug (Abl kinase inhibitors and tamoxifen) and/or injury, and no significant effects of age and gender were observed.
# Inhibitors. GNF5 (N-(2-Hydroxyethyl)-3-(6-(4-(trifluoromethoxy)phenylamino)pyrimidin-4-yl)benzamide) was synthesized at the Duke University's Small Molecule Synthesis Facility, and validated by LC-MS and 1H-NMR/FT-IR spectra and with cell-based assays that confirm potencies and cell signaling inhibitory activities. For in vivo experiments, GNF5 was prepared in a suspension with 0.5% methylcellulose and 0.5% Tween-80 at a concentration of 10 mg/mL, and mice were treated with either 20 mg/kg, 40 mg/kg, or 100 mg/kg b.i.d. via oral gavage.
# Bronchoalveolar lavage preparation and assays. Bronchoalveolar lavage (BAL) fluid was collected immediately after euthanasia three days after exposure to S. aureus as previously described (Suliman H B, et al. (2017) Lung cellular and molecular physiology 313(4):L699-L709). Bilateral BAL was performed using two 1 mL aliquots of sterile PBS with approximately 75-80% retrieval per mouse. […]
# Primary HBECs [2] = experiment: primary HBECs pre-treated with Abl kinase inhibitor before exposure to S. aureus, Western blot; type: cell-based, human; conditions: pre-treated 24 hours prior to exposure to S. aureus
# From the text: Cell Culture. Primary human bronchial epithelial cells were isolated as previously described (Fulcher M L & Randell S H (2013) Methods Mol Biol 945:109-121) and passage 1 cells were derived from human lungs unsuitable for transplantation from non-smoker organ donors without pre-existing lung disease under protocol #03-1396 approved by the University of North Carolina at Chapel Hill Biomedical Institutional Review Board. Informed consent was obtained from authorized representatives of all organ donors. 30,000 cells were plated into each well of 6.5 mm polyester inserts containing 0.4 μm pores (Sigma-CLS3470) coated with Type IV human placenta collagen (Sigma-C7521). 100 μl of ALI medium was added to the insert and 600 μl of ALI medium was added to the well at the time of plating. At Day 3, ALI medium from the insert was removed while that in the well was changed daily for 28 days. At Day 28, the inserts containing the cells were removed from their wells, washed with PBS, and incubated at 37° C. for 30 minutes with 1×10^8 CFU S. aureus. Cells were then washed three times with PBS and returned to wells containing 600 μl of ALI medium to regrow. […]
# Immunoblotting. […] Protein was quantified, and equal amounts of protein was separated by SDS-polyacrylamide gel electrophoresis (BioRad-1610183) and transferred onto 0.2 μm pore nitrocellulose membranes. […]
# [3] = system: primary human bronchial epithelial cells (HBECs); experiment: basal cell differentiation of primary HBECs in air-liquid interface (ALI) cultures; type: cell-based; conditions: vs vehicle
# From the text: Cell Culture. Primary human bronchial epithelial cells were isolated as previously described (Fulcher M L & Randell S H (2013) Methods Mol Biol 945:109-121) and passage 1 cells were derived from human lungs unsuitable for transplantation from non-smoker organ donors without pre-existing lung disease under protocol #03-1396 approved by the University of North Carolina at Chapel Hill Biomedical Institutional Review Board. Informed consent was obtained from authorized representatives of all organ donors. 30,000 cells were plated into each well of 6.5 mm polyester inserts containing 0.4 μm pores (Sigma-CLS3470) coated with Type IV human placenta collagen (Sigma-C7521). 100 μl of ALI medium was added to the insert and 600 μl of ALI medium was added to the well at the time of plating. At Day 3, ALI medium from the insert was removed while that in the well was changed daily for 28 days. At Day 28, the inserts containing the cells were removed from their wells, washed with PBS, and incubated at 37° C. for 30 minutes with 1×10^8 CFU S. aureus. Cells were then washed three times with PBS and returned to wells containing 600 μl of ALI medium to regrow. Cells were harvested at multiple time points up to five days after injury for protein or RNA extraction. All cultures were maintained at 37° C. in humidified air containing 5% CO2.
# First, the role of Abl kinases in basal cell differentiation in primary human bronchial epithelial cells (HBECs) in air-liquid interface (ALI) cultures was examined. Basal cells were isolated from human donor lungs and plated on polyester transwell inserts at passage 1. Once the cells were 100% confluent (3-4 days after plating), media from the top chamber of the transwell insert was removed to promote differentiation of the basal cells into a pseudostratified ciliated epithelium (FIG. 19A). […] Among these are acetylated α-tubulin and SNTN (ciliated cell marker) and SCGB3A2 (secretory cell marker) (FIG. 19C).
# To identify whether Abl kinase inhibition promotes early (Krt5+ cells→Krt8+ cells) or late (Krt8+→acetylated α-tubulin or Scgb1a1+ cells) differentiation, a time course experiment in primary HBEC ALI cultures was conducted. Primary HBECs were plated on polyester transwell inserts and treated with vehicle control or GNF5 24 hours after plating.
# Primary HBECs [4] = experiment: transepithelial electrical resistance assay in ALI cultures of primary HBECs; type: cell-based, human; conditions: vs vehicle control-treated cells
# From the text: Thus, inhibition of the Abl kinases in 3D ALI cultures of primary HBECs promotes basal cell differentiation and enhances barrier function.
# [5] = system: Basal cells (bronchospheres); experiment: bronchosphere 3D Matrigel culture assay; type: cell-based, human; conditions: for SOX2 (basal cell marker) expression, immunoblot / acetylated α-tubulin (ciliated cell marker) expression, immunoblot: bronchosphere lysates; for Ki67 (proliferation marker) protein expression: vs untreated cells; for bronchosphere growth: basal cell proliferation and differentiation: treated three days starting two days after plating
# Experimental: The effect of Abl kinase inhibition on the development of bronchospheres in a 3D Matrigel culture assay was also evaluated. Basal cells were cultured in Matrigel at passage 1 and treated with vehicle control, the Abl kinase inhibitor, GNF5, or the Abl kinase activator, DPH, for three days starting two days after plating the cells.
# [6] = system: mouse airway epithelium after SO2 injury; experiment: sulfur dioxide (SO2) airway injury mouse model; type: in vivo
# From the text: To evaluate whether the Abl kinases promote basal cell differentiation in vivo, the sulfur dioxide (SO2) injury model was employed (FIG. 22). SO2 inhalation elicits cell death and sloughing of luminal (ciliated and secretory) cells, leaving a layer of intact basal cells in the tracheobronchial region (Zuo W. et al. (2015) Nature. 517(7536):616-20). Previous studies have shown that after SO2-induced destruction and sloughing of luminal cells, the surviving basal cells (Krt5+) proliferate to generate progenitor cells (Krt8+) that accumulate and subsequently undergo differentiation into ciliated (acetylated alpha-tubulin+) and secretory (Scgb1a1+) cells (5 days to 2 weeks after injury) (Hogan B L, et al. (2014) Cell stem cell, 15(2):123-38). This well-defined model of airway injury and regeneration has been employed to identify signaling pathways that promote proliferation and differentiation of the lung epithelium after injury (Hogan B L, et al. (2014) Cell stem cell, 15(2):123-38, Tadokoro T, et al., (2014) Proceedings of the National Academy of Sciences of the U.S.A. 111(35):E3641-9).
# To distinguish between protective and regenerative effects of Abl kinase inhibition, the expression of various proliferation and differentiation markers in the mouse trachea after injury was evaluated.
# Next, whether Abl kinase inhibition promotes basal cell differentiation to Krt8+ cells by affecting Yap1 signaling was investigated. Three days after SO2 injury, mouse tracheas were harvested and evaluated for Yap1 protein expression by immunofluorescence.
# [7] = system: Kras G12D/+; p53 -/- driven lung tumors; type: in vivo, mouse; conditions: GNF5 b.i.d.; docetaxel at sub-therapeutic dose; vehicle four-fold increase
# Abl kinases = conditions: Zhang J. et al. (2010) Nature 463:501-506; cited from earlier work
# [8] = day 3 post-infection, treatment started 24 hours after injury (Post)
smiles,measurement,setting,value
Cc1cn(-c2cc(NC(=O)c3ccc(C)c(Nc4nccc(-c5cccnc5)n4)c3)cc(C(F)(F)F)c2)cn1 [nilotinib],lung injury,"[1]; FIG. 9F, treatment 24 h after injury",significant reduction in lung injury
same,BAL protein concentration,[1]; [8],reduction in protein in the airspace
same,"expression of downstream transcriptional targets of YAP (Birc5, c-Myc, Cyclin D3)",Primary HBECs [2],decreased transcript and protein expression
same,acetylated α-tubulin expression (3D reconstruction),[3]; 7 days after plating,increase in expression of acetylated α-tubulin
same,acetylated α-tubulin protein expression (Western blot),[3]; 7 days after plating,increase in protein expression of acetylated α-tubulin
same,transepithelial electrical resistance across monolayer,Primary HBECs [4],increased resistance
same,"SOX2 (basal cell marker) expression, immunoblot",[5],"decrease in the basal cell marker, SOX2"
same,"acetylated α-tubulin (ciliated cell marker) expression, immunoblot",[5],"increase in the ciliated cell marker, acetylated α-tubulin"
same,Ki67 (proliferation marker) protein expression,[5],"increase in protein expression of the proliferation marker, Ki67"
"O=C(NCCO)c1cccc(-c2cc(Nc3ccc(OC(F)(F)F)cc3)ncn2)c1 [GNF5, N-(2-Hydroxyethyl)-3-(6-(4-(trifluoromethoxy)phenylamino)pyrimidin-4-yl)benzamide]",activity and appearance of mice,"[1]; 24 h after injury, vs vehicle control-treated mice",active and exhibited a healthy appearance
same,lung injury in lung tissue sections (H&E),"[1]; 72 hours post-infection, treatment started 1 h after insufflation",significant decrease in lung injury
same,proportion of GFP+ (Scgb1a1 driver) SPC+ cells,"[1]; CC10-CreER, Rosa26-fGFP mice, three days after injury, vs vehicle",significant increase
same,proportion of SOX2+ SPC+ cells expanding from bronchioles into lung parenchyma,"[1]; SOX2-eGFP mice, 100 mg/kg b.i.d. oral gavage from 24 h before insufflation, three days after injury, vs vehicle",dramatic increase
same,alveolar damage (loss of alveolar area/volume compared to uninfected mice),"[1]; SPC-CreERT2, Rosa26-tdTomato mice, 3 days after injury, vs Abl1 wt or fl/fl mice",reduced damage
same,"tdTomato+, RAGE+ (Type I) cells derived from tdTomato+, SPC+, RAGE- (Type II) cells","[1]; SPC-CreERT2, Rosa26-tdTomato mice, three days after injury",detected at sites of damage only in mice treated with GNF5
same,proportion of tdTomato+ (Sftpc driver) RAGE+ Type I AECs,"[1]; SPC-CreERT2, Rosa26-tdTomato mice, vs untreated wild-type and Abl1 knockout",increase in the proportion
same,SPC expression in SCGB1A1+ cells within the bronchioles,[1]; after injury,enhanced SPC expression
same,BAL protein concentration,[1]; [8],significant reduction in protein concentration
same,BAL protein concentration,"[1]; day 3 post-infection, treatment started 24 hours prior to injury (Pre)",significant reduction in protein concentration
same,recovery of alveolar epithelium (RAGE staining),"[1]; day 3 post-infection, vs control mice",recovered more rapidly
same,recovery of mice after injury,"[1]; two doses, 1 hour and 16 hours after injury, evaluated after 24 hours, vs vehicle",sufficient to promote recovery after 24 hours
same,SNTN expression (RT-PCR),[3]; 7 days after plating,increase in expression of SNTN
same,Krt8 expression (immunofluorescence and Western blot),[3]; treated 24 hours after plating,significant increase in expression of Krt8
same,"SOX2 (basal cell marker) expression, immunoblot",[5],"decrease in the basal cell marker, SOX2"
same,"acetylated α-tubulin (ciliated cell marker) expression, immunoblot",[5],"increase in the ciliated cell marker, acetylated α-tubulin"
same,bronchosphere growth: basal cell proliferation and differentiation,[5],promoted basal cell proliferation and differentiation
same,Ki67 (proliferation marker) protein expression,[5],"increase in protein expression of the proliferation marker, Ki67"
same,Ki67 expression in tracheal basal cells,"[6]; 24 h following SO2 induced injury, vs untreated",significant increase in the expression of Ki67
same,Scgb1a1+ Club cells and acetylated α-tubulin+ ciliated cells (staining),[6]; 24 hours after SO2 exposure,mostly intact layer of secretory cells and some ciliated cells
same,quantification of acetylated α-tubulin+ ciliated cells in whole tracheas,"[6]; 24 hours after sulfur dioxide, pre-treatment 24 hours before",protection of ciliated cells
same,pseudostratified epithelium in whole trachea sections (immunofluorescence),"[6]; after SO2 injury, vs untreated mice",preservation of the pseudostratified epithelium
same,Yap1 localization in basal cells,[6]; three days after SO2 injury,predominantly cytoplasmic localization of Yap1
same,tracheal epithelium morphology (H&E),[6]; three days after SO2 injury,"stratified, columnar, ciliated epithelium that had almost completely recovered from injury"
same,state of airway epithelium,"[6]; within 24 hours after SO2 injury, pre-treated mice",mostly intact mouse airway epithelium
same,change in tumor size over a two-week period (μCT),[7],two-fold increase in tumor size
same,selectivity versus other protein kinases,Abl kinases,does not inhibit other protein kinases
O=C1NC(=O)C(c2cn(-c3ccccc3)nc2-c2ccc(F)cc2)N1 (stereo not drawn) [DPH],"SOX2 (basal cell marker) expression, immunoblot",[5],"increased expression of the basal cell marker, SOX2"
same,"acetylated α-tubulin (ciliated cell marker) expression, immunoblot",[5],decreased expression of acetylated α-tubulin
same,bronchosphere growth: basal cell proliferation and differentiation,[5],reduced bronchosphere growth and differentiation
